According to patent US20160030373A1, “2-AAA as a Biomarker and Therapeutic Agent for Diabetes” (THE GENERAL HOSPITAL CORPORATION, priority 2013, published 2016):

What was measured:
[1] = Plasma 2-AAA level in mice supplemented with 2-AAA; type: in vivo; settings: 500 mg/kg/day via drinking water; by one week of treatment; p=0.018
Protocol: (§1) Intervention studies in mice were completed to examine whether 2-AAA might play a contributory or compensatory role in glucose homeostasis by performing 2-AAA. For this study, four independent cohorts of 24 C57B/L6 male mice entered the study protocol at 6 weeks of age. Two cohorts received the standard chow diet and two cohorts received a high-fat diet. Half of the mice assigned to each diet received 2-AAA (500 mg/kg/day equivalent to a starting dose of 12.03±0.30 mM) via the drinking water for up to five weeks. Pre-weighed food and water were administered to each cage. Food and water intake was monitored weekly. Mice supplemented with 2-AAA had 33% higher plasma levels of this metabolite by one week of treatment (p=0.018).
For the perigonadal adipose tissue, metabolites were first extracted by mixing harvested tissues with 6 μL per 1 mg of adipose tissue of a MeOH:Chloroform solution (2:1 v/v). The extracted adipose tissues were then homogenized for 4 minutes at 25 Hz in a TissueLyser II. […] A calibration curve using 2-AAA d3 (C/D/N Isotopes Inc, Quebec Canada) was generated for absolute quantitation of 2-AAA in plasma and tissue samples. […] An isotopically labeled standard was used to facilitate absolute quantitation of the metabolite of interest in the setting of the different biological matrices.

C57B/L6 male mice [2] = experiment: Fasting plasma glucose in mice given 2-AAA chronically via drinking water; type: in vivo; settings: for fasting glucose levels: 2-AAA 500 mg/kg/day via drinking water, mean ± SEM
Protocol: FIGS. 2A and B are graphs depicting fasting plasma glucose levels in 2-AAA in mice fed either a standard chow (2A) or high-fat diet (2B). Fasting plasma glucose levels were measured weekly in mice fed either a standard chow (left) or high-fat diet (right) beginning at 6 weeks of age, with simultaneous 2-AAA treatment via drinking water (500/mg/kg/day) or water alone for the subsequent 5 weeks. (n=24 mice per condition) (*p<0.05; **p<0.01; ***p<0.001).
The effect of a Western-style diet on circulating 2-AAA levels in mice was examined. C57BL/6 male mice (Jackson Laboratories, Bar Harbor, Me.) were housed in separate cages with free access to food and water. Mice were fed a standard chow diet containing 22.5% protein, 52% carbohydrates, 6% fat, 6% ash and 4% fiber (Prolab Isopro RMH 3000, Brentwood, Mo.) or a high-fat diet containing 20 kcal % protein, 20 kcal % carbohydrate and 60 kcal % fat (DIO formula, D12492, Research Diets, Inc, New Brunswick, N.J.) as indicated. The total energy equivalent was 3.46 kcal/gm for the standard chow diet and 5.24 kcal/gm for the high fat diet.
as §1
Fasting plasma glucose levels were measured weekly in mice fed either a standard chow (left) or high-fat diet (right) beginning at 6 weeks of age, with simultaneous 2-AAA treatment via drinking water (500/mg/kg/day) or water alone for the subsequent 5 weeks. […]

C57B/L6 male mice [3] = experiment: Intra-peritoneal glucose tolerance test (IPGTT) after chronic 2-AAA treatment; type: in vivo; settings: IPGTT 1.5 mg/g; mice fed SCD and HFD for 5 weeks or greater
Protocol: FIG. 4 is a graph depicting plasma glucose levels in 2-AAA mice fed either a standard chow (left) or high-fat diet (right) following IPGTT challenge after completion of the 2-AAA chronic treatment in mice fed either the standard chow or high-fat diet. (n=12 mice per condition) (*p<0.05; **p<0.01).
(§2) Fasting insulin levels in mice were measured by an ELISA kit (Crystal Chem Inc., Downers Grove Ill.). After 5 weeks of 2-AAA treatment, and following a 6-hour fast, each group of mice was administered an intra-peritoneal glucose tolerance test (IPGTT; 1.5 mg/g of body weight; 75 mg/mL of glucose solution) or an insulin tolerance test (ITT; 0.00075 U of insulin/g of body weight, 0.15 U/ml insulin solution, Sigma-Aldrich, St. Louis, Mo.). For the IPGTT, venous blood samples were obtained from the tail vein immediately prior to glucose injection and then serially at 30, 60, and 120 minutes following the injection. For the ITT, venous blood samples were obtained from the tail vein immediately prior to the insulin injection and then serially at 15, 30, 45 and 60 minutes following the injection.
(§3) Additional studies were performed using acute physiologic challenges, including acute glucose and insulin administration. As expected, mice fed a HFD had more pronounced glucose excursions following the glucose challenge (FIG. 4). […]

Beta TC6 (BTC6) cells = experiment: Insulin secretion by BTC6 pancreatic beta cell line; type: cell-based, mouse; settings: for insulin secretion: 100 μM, 2.5 mM glucose
Protocol: FIG. 8A is a graph depicting percent insulin secretion by BTC6 cells following incubation with 2-AAA at concentrations ranging from 0 to 100 μM for 0.5 to 72 hours.
FIG. 8B is a graph depicting the effects of 2-AAA (30 μM), clonidine (100 μM) and phentolamine (100 μM) on insulin secretion by BTC6 cells.
To investigate the connection between 2-AAA and the pancreas, insulin production by a pancreatic beta cell line that was acutely and chronically exposed to 2-AAA. Beta TC6 (BTC6) cells, an established model to examine insulin secretion (mouse insulinoma beta-TC-6 (ATCC® CRL-11506™) from ATCC (Manassas, Va.)) (27-29), were used at passage number 4-7, grown in DMEM (ATCC 2002-30), 15% FBS, with penicillin/streptomycin (100 IU/ml/100 μg/ml). Cells were plated on 24 well collagen plates at 40,000 cells per well, incubated with 2-AAA at varying concentrations ranging from 0 to 100 μM for 0 to 72 hours to assess whether this compound increases insulin secretion in a time and/or dose dependent fashion. On the day of experimentation, the cells were washed with PBS and the media was changed to DMEM without FBS or glucose to which 0.1% BSA was added. After 1 hour of incubation, this media was changed to serum free media containing 2.5 mM of glucose. Insulin production was measured in the supernatant after 1 additional hour of incubation. To assess the time response relationship, 2-AAA was added to the cells after plating on collagen and incubated for 0.5, 2, 6, and 72 hours.

[4] = test system: Islets from male C57BL/6J mice; experiment: Insulin secretion from isolated mouse islets; type: cell-based; settings: 30 μM 2-AAA for 6 hours; 2.5 mmol/l glucose; normalized to islet content
Protocol: FIG. 9 is a graph depicting insulin secretion from islets isolated from male C57BL/6J mice following incubation with 30 μM 2-AAA for 6 hours. Insulin was assayed using the Meso Scale Discovery multi array assay system for mouse/rat total insulin (Gaithersburg, Md., USA). Secretion was normalized to islet content. (n=3, p=0.016)
Islets from male C57BL/6J mice were isolated by collagenase digestion of the pancreas, purified by Ficoll density gradient and then handpicked. Mouse islets were cultured for 24 hours as previously described (26). For insulin secretion experiments, 15 islets were placed in each microcentrifuge tube and incubated in islet secretion buffer containing (in mmol/1) 120 NaCl, 5 KCl, 1 CaCl2, 1.2 MgCl2, 24 NaHCO3, 10 HEPES, and 2.5 glucose, bubbled with 95% O2/5% CO2 and supplemented with 0.5% (wt/vol) BSA. Experiments were performed by incubating islets in 1 ml of secretion buffer in the presence or absence of 30 μM 2-AAA for 6 hours at 37° C., 5% CO2. Insulin was assayed using the Meso Scale Discovery multi array assay system for mouse/rat total insulin (Gaithersburg, Md., USA). Secretion was normalized to islet content.

C57B/L6 male mice [5] = experiment: Insulin tolerance test (ITT, acute insulin challenge) after 2-AAA treatment; type: in vivo; settings: ITT 0.00075 U insulin/g; SCD and HFD
Protocol: FIGS. 6A and 6B are graphs depicting plasma glucose levels 2-AAA mice fed either a standard chow (left) or high-fat diet (right) measured following acute insulin challenge (n=15 per condition).
as §2
as §3, with “4). In mice fed both the SCD and HFD for 5 weeks or greater, peak glucose concentrations following the glucose challenge were lower in the 2-AAA treated mice.” for “4).”

C57B/L6 male mice [6] = experiment: Fasting plasma insulin levels (ELISA) after 2-AAA treatment; type: in vivo; settings: after 5 weeks of 2-AAA; increase seen in HFD animals
Protocol: FIG. 5 is a graph depicting fasting plasma insulin levels in 2-AAA mice fed either a standard chow (left) or high-fat diet (right) measured following completion of the 2-AAA treatment (5 weeks) in the mice on both diets (n=12 mice per condition) (*p<0.05).
as §2, §3

[7] = Food intake and weight in control and 2-AAA treated mice; type: in vivo; settings: 2-AAA 500 mg/kg/day via drinking water, up to 5 weeks
From the text: FIGS. 3A and 3B are graphs depicting serial weights and food intake in control and 2-AAA treated animals.
as §1
Fasting plasma glucose levels were measured weekly in mice fed either a standard chow (left) or high-fat diet (right) beginning at 6 weeks of age, with simultaneous 2-AAA treatment via drinking water (500/mg/kg/day) or water alone for the subsequent 5 weeks. (n=24 mice per condition) (*p<0.05; **p<0.01; ***p<0.001). For mice on the SCD, fasting glucose levels were 109.5±3.8 mg/dL for the 2-aminoadipic treated animals as compared to 124.5±4.9 mg/dL, for the untreated controls after 5 weeks (p<0.01, FIG. 2A). […]

Compound | increase in plasma levels of 2-AAA versus unsupplemented mice [1] | fasting glucose levels in treated mice versus water alone (C57B/L6 male mice [2]; both diets, p<0.001 by 2-way ANOVA after 5 weeks) | fasting glucose levels (C57B/L6 male mice [2]; mice on high-fat diet (HFD), at 5 weeks) | fasting glucose levels (C57B/L6 male mice [2]; mice on standard chow diet (SCD), after 5 weeks) | peak glucose concentrations following the glucose challenge versus control (C57B/L6 male mice [3]) | insulin secretion from BTC6 cells (Beta TC6 (BTC6) cells; 2-AAA 0 to 100 μM for 0.5 to 72 hours) | incubation time at which augmented insulin secretion was evident (Beta TC6 (BTC6) cells; BTC6 cells) | peak insulin secretion relative to that of phentolamine (172±8% of control) (Beta TC6 (BTC6) cells; BTC6 cells, 2-AAA 30 μM vs phentolamine 100 μM) | insulin release from islets [4] | effect on rate of decline in glucose levels following acute insulin challenge (C57B/L6 male mice [5]) | fasting insulin levels versus untreated animals (C57B/L6 male mice [6]) | differences in food intake or weight between treated and control mice [7] | insulin secretion (Beta TC6 (BTC6) cells; BTC6 cells)
N[C@H](CCCC(=O)O)C(=O)O (stereo in doubt) [2-AAA, 2-aminoadipic acid] | 33% | consistently lower | 134.5 ± 5.9 mg/dL | 109.5 ± 3.8 mg/dL | lower | induced insulin secretion from BTC6 cells in a dose and time dependent fashion | at least 6 hours | comparable | release insulin | no effect | further augmented | no significant differences | 
Clc1cccc(Cl)c1N=C1NCCN1 [clonidine, reference compound] |  |  |  |  |  |  |  |  |  |  |  |  | 60±3 % of control
Cc1ccc(N(CC2=NCCN2)c2cccc(O)c2)cc1 [phentolamine, reference compound] |  |  |  |  |  |  |  |  |  |  |  |  | 172±8 % of control
